Measured values as given in ChEMBL document CHEMBL1201862, “PubChem BioAssay data set” (2004).
Active and inactive are the calls of the source.

Experiments:
[1] = molecular target: T1, Voltage-gated N-type calcium channel alpha-1B subunit/Amyloid beta A4 precursor protein-binding family A member 1 (Homo sapiens, UniProt Q00975+Q02410); type: protein assay
Large T antigen = Large T antigen (Simian virus 40, UniProt P03070); type: functional, Betapolyomavirus macacae;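 note: Confirmatory-stage PubChem screen for compounds that inhibit SV40 T antigen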
[2] = molecular target: T1, Voltage-gated N-type calcium channel alpha-1B subunit/Amyloid beta A4 precursor protein-binding family A member 1; type: protein assay; remark: listed apart in the source
Beta-galactosidase = Beta-galactosidase (Escherichia coli, UniProt Q8VNN2); assay: beta-galactosidase enzyme inhibitors and activators, dose response, artefact control for CCR6 antagonist project, biochemical, E. coli enzyme, set 3 (AID 504712); type: functional
[3] = molecular target: DNA dC->dU-editing enzyme APOBEC-3G (Homo sapiens, UniProt Q9HC16); assay: Dose Response confirmation of small molecule APOBEC3G DNA Deaminase Inhibitors via a fluorescence-based single-stranded DNA deaminase assay. [Related pubchem assays (depositor defined):AID493012, AID493028]; type: functional
[4] = molecular target: Heat shock protein HSP 90-alpha (Homo sapiens, UniProt P07900); type: functional, organism-based
HEK293 [5] = assay: cells; conditions: Homo sapiens
HEK293 [6] = assay: cells; conditions: Homo sapiens; remark: listed apart in the source
[7] = Vero E6 cell cytotoxicity, dose response, cytotoxicity control for non-replicating M. tuberculosis project, secondary assay (AID 492998); type: functional, VeroE6; conditions: Vero C1008
cells [8] = type: functional
[9] = microbe, parasite or virus in culture; type: functional; conditions: Mycobacterium tuberculosis
Melanocortin receptor 4 = Melanocortin receptor 4 (Homo sapiens, UniProt P32245); type: functional, cell-based;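 note: Cell-based assay with luminescence read-out, confirmatory dose-response testing for agonist activity of biased ligands at MC4R; human U2OS cells with tagged receptor and beta-arrestin; potency of agonists that increase receptor coupling to beta-arrestin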
[10] = HEp-2 cell cytotoxicity, dose response, cytotoxicity control for RSV inhibitor project, HTS (AID 2410); type: functional; conditions: human respiratory syncytial virus
[11] = inhibitors of intracellular T. cruzi replication, confirmation, NIH3T3 host cells, beta-gal luminescence (AID 2044); type: functional, cell-based;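 note: intracellular parasites grown in NIH/3T3 mouse fibroblasts as host cells; luminescent beta-galactosidase reporter signal from transgenic T. cruzi replicating inside host cells; inhibitors lower the luminescence signal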
[12] = cytotoxicity toward NIH3T3 fibroblasts, dose response, counter-screen, cell-based, ATP luminescence, mouse fibroblasts (AID 2010); type: functional;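 note: cells exposed to compound for about 90 hours before reading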
Vero = assay: cells; type: functional, cell-based; conditions: Chlorocebus sabaeus
cells [13] = assay: cells
[14] = molecular target: Dual specificity tyrosine-phosphorylation-regulated kinase 1A (Rattus norvegicus, UniProt Q63470); type: biochemical, Homo sapiens

T1 sequence (Q00975 whole entry): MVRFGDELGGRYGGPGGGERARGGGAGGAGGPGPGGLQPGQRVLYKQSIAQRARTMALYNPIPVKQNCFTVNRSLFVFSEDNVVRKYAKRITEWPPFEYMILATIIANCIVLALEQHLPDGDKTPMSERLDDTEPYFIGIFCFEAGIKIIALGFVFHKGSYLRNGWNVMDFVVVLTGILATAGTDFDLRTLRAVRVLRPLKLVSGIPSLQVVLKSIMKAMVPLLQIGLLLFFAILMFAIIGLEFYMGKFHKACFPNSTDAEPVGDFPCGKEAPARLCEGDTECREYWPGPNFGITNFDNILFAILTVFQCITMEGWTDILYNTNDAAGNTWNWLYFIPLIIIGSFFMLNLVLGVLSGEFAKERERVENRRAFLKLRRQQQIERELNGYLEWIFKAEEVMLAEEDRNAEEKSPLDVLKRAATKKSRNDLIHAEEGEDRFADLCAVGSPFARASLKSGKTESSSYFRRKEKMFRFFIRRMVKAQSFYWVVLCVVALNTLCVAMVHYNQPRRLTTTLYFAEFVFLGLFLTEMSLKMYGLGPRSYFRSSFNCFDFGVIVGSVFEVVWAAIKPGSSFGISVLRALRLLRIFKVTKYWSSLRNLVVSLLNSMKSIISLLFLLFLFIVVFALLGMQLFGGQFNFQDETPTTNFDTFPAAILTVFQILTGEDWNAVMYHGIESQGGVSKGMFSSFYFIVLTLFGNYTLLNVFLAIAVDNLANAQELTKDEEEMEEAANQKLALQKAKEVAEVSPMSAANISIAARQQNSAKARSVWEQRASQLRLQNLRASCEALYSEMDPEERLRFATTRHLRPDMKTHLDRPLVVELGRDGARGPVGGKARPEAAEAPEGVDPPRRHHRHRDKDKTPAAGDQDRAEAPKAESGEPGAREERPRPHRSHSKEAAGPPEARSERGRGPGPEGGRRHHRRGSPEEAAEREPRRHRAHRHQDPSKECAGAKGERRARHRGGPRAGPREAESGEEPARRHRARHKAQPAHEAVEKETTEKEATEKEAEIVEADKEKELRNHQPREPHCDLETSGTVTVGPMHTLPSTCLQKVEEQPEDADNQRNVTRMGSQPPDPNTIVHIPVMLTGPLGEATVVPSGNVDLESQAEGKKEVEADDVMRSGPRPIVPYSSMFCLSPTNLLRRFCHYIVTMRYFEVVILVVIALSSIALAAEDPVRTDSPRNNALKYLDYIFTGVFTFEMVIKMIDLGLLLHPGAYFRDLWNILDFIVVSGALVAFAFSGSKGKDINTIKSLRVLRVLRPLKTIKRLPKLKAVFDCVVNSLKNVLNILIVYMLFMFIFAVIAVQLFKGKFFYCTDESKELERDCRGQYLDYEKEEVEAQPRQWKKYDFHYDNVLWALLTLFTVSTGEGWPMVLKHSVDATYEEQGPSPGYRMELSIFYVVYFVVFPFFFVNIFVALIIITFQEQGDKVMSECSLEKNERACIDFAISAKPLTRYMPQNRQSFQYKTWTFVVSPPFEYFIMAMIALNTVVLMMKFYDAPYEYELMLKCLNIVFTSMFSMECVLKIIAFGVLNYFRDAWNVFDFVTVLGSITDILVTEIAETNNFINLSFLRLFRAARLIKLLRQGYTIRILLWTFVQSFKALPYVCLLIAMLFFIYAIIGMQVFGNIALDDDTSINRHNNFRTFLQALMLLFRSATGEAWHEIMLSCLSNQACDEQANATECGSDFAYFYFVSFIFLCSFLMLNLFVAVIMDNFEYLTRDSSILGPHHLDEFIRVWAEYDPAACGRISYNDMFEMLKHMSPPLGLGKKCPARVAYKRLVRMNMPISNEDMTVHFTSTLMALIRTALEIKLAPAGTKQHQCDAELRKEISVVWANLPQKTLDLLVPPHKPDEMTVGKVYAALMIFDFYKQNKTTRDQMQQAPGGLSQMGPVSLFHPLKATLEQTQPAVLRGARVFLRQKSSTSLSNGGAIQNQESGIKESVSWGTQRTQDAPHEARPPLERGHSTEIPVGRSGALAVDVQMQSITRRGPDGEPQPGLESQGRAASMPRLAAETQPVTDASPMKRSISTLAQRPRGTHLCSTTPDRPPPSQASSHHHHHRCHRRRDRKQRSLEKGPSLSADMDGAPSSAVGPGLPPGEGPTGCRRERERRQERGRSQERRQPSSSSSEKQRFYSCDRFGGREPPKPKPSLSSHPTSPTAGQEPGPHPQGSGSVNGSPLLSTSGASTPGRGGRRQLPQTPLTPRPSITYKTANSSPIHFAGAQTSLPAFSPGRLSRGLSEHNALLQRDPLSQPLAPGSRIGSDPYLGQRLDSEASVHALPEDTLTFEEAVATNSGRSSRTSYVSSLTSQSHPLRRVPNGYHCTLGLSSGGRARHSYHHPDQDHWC
T1 sequence (Q02410 whole entry): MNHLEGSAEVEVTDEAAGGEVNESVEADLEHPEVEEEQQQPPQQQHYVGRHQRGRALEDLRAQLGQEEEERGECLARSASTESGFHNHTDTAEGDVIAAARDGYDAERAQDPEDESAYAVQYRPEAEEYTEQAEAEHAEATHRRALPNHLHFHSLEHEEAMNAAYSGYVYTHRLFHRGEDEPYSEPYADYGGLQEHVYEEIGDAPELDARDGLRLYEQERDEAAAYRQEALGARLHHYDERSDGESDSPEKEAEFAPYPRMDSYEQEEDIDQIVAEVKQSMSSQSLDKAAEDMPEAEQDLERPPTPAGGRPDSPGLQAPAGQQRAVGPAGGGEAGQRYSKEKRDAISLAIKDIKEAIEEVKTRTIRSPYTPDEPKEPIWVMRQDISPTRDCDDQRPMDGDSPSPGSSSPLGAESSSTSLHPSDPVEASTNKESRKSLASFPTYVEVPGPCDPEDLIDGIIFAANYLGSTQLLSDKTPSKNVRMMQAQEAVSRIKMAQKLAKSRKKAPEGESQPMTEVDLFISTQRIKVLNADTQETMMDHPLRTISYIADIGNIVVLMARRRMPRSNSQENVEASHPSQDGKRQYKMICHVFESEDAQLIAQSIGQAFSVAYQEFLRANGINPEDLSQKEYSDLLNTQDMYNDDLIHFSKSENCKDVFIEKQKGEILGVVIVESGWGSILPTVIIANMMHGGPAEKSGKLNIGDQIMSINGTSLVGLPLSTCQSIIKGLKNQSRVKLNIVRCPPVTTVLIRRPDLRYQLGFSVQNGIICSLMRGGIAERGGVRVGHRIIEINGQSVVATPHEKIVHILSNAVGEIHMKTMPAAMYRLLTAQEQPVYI
Sequence of Large T antigen (P03070 whole entry): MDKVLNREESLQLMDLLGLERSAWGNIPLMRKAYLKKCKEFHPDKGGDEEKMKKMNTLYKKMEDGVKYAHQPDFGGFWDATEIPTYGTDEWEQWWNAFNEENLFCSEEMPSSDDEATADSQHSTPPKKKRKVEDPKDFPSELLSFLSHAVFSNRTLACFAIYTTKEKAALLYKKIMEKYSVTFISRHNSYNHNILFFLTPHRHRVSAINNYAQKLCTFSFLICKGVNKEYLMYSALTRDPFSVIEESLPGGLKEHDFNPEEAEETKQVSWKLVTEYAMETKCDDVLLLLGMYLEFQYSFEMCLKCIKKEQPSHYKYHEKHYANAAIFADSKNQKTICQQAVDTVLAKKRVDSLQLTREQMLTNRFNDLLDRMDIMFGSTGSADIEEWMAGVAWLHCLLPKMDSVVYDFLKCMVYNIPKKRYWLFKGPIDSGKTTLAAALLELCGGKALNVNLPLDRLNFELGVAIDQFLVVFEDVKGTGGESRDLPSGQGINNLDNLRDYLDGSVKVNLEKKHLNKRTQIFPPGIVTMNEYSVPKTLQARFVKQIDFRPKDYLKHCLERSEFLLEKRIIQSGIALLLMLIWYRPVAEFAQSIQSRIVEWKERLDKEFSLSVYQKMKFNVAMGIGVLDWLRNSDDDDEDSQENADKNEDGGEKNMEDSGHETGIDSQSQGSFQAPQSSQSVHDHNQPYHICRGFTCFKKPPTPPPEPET
Sequence of Beta-galactosidase (Q8VNN2 whole entry): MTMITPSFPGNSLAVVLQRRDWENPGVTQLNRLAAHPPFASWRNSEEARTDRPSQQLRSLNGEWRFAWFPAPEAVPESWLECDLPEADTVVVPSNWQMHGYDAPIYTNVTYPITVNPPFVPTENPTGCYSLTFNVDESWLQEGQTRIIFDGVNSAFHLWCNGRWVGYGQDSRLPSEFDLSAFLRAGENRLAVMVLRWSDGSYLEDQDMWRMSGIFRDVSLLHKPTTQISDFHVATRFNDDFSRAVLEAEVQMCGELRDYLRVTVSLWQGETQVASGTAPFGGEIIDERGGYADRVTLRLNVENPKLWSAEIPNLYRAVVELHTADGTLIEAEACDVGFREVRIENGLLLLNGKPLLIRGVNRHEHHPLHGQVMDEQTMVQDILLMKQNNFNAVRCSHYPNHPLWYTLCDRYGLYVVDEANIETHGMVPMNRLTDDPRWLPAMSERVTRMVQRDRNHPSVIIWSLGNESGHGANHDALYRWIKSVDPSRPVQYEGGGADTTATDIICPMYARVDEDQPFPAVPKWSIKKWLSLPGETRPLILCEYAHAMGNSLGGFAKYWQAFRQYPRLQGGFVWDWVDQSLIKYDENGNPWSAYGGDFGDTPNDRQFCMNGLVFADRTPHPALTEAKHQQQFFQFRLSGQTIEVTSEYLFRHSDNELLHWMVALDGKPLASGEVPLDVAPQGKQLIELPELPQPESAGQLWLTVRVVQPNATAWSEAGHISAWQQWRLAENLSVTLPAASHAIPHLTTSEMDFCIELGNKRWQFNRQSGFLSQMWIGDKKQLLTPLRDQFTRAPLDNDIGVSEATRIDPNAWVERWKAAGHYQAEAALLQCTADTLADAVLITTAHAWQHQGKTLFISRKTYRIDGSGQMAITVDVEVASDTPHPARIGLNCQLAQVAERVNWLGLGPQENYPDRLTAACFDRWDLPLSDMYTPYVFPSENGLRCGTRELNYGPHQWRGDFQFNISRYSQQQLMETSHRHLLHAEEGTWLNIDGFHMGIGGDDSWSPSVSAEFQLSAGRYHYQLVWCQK

## COc1cc(N2C(=O)C=CC2=O)c(OC)cc1Cl
[1]
  IC50: 11.6 µM (active)
Large T antigen
  IC50: 54.6 µM (active)
[2]
  IC50: 1.97 µM (active)
Beta-galactosidase
  IC50: > 66.6 µM (inactive)
[3]
  IC50: 44 µM (active)
[4]
  AC50: 2.72 µM (active)

## N#CC1=C(SCc2ccc(C#N)cc2)N=C(N)C(c2nc(-c3ccccc3)cs2)C12CCCCC2 (stereo not drawn)
HEK293 [5]
  EC50: > 59.6 µM (inactive)
HEK293 [6]
  EC50: > 59.6 µM (inactive)

## COc1ccccc1NC(=O)/C(O)=C/C(=O)c1ccccc1
[7]
  CC50: > 20 µM (active)
Cells [8]
  IC50: 32 µM (active)

## Cc1ccc(CN2CCC(c3cc(-c4ccc(Cl)cc4)[nH]n3)CC2)cc1
[9]
  CC50: > 40 µM (active)
Melanocortin receptor 4
  EC50: > 89.2 µM (inactive)

## O=c1c2ccccc2[nH]c(=S)n1CCCN1CCN(c2ccccc2)CC1
[10]
  CC50: > 12.5 µM (active)
[11]
  EC50: < 0.1 µM (active)
[12]
  EC50: > 60 µM (not active)
Vero
  IC50: > 25 µM (active)
Cells [13]
  EC50: 0.169 µM (active)

## Cc1cc(C(=O)N/N=C/c2ccc(Cl)c([N+](=O)[O-])c2)c(C)n1-c1ccc(F)cc1
HEK293 [5]
  EC50: > 59.7 µM (inactive)
HEK293 [6]
  EC50: > 59.7 µM (inactive)

## O=C1NC(=O)/C(=C\c2ccc(Oc3cnccn3)cc2)S1
[14]
  AC50: 4.71 µM (active)

## O=c1c2ccccc2[nH]c(=S)n1CCCN1CCN(c2ccccc2F)CC1
Vero
  IC50: > 25 µM (active)

## Cc1ccc(N(C(=O)Cc2cccs2)C(C(=O)NC2CCCCC2)c2ccccn2)cc1C (stereo not drawn)
HEK293 [5]
  EC50: > 59.6 µM (inactive)
HEK293 [6]
  EC50: > 0.245 µM (active)
